According to patent US20250333745A1, “METHODS AND COMPOSITIONS FOR TREATMENT OF POLYCYSTIC KIDNEY DISEASE” (Regulus Therapeutics Inc., priority 2016, published 2025):

Legend:
[1] = In vitro metabolic stability in monkey liver lysate; format: in vitro ADME; conditions: 24-hour incubation of RG4326
Description: (§1) Due to their reduced capacity for serum protein binding, which is a property that drives oligonucleotide distribution in the body, short oligonucleotides are not necessarily expected to have pharmacokinetic properties that make them suitable for use as drugs. RG4326 was incubated in mouse, monkey or human liver homogenate. The identity and concentration of RG4326 and metabolites was determined after a 24-hour incubation. RG4326 and metabolites were extracted using liquid-liquid extraction (LLE) and/or solid-phase extraction (SPE), which were then analyzed for identity and concentration using ion-pairing-reversed-phase high performance liquid chromatography coupled with time-of-flight mass spectrometry (IP—RP-HPLC-TOF).

[2] = In vitro metabolic stability in human liver lysate; format: in vitro ADME; conditions: 24-hour incubation of RG4326
Description: as §1

[3] = In vitro metabolic stability in mouse liver lysate; format: in vitro ADME; conditions: 24-hour incubation of RG4326
Description: Metabolic stability was evaluated by incubating each anti-miR-17 compound in a mouse liver lysate. After 24 hours, the percentage of intact compound remaining is calculated. Compounds that are not stable following a 24-hour incubation are potentially not stable in vivo.
as §1

Pcy mice = test: Efficacy in the Pcy model of PKD; format: in vivo, mouse
Excerpt: Two experimental models of PKD were used to evaluate efficacy. Pkd2-KO mice spontaneously develop polycystic kidney disease, and were used as a model of ADPKD. See Patel et al., PNAS, 2013; 110 (26): 10765-10770. Pcy mice bearing a mutation in Nphp3 spontaneously develop polycystic kidney disease, with a slower progression of disease than that observed in the Pkd2-KO mice. The Pcy model is used as a model of nephronophthisis. See Happe and Peters, Nat. Rev. Nephrol., 2014; 10:587-601.
Cyst index is a histological measurement of cystic area relative to total kidney area. For this analysis, one kidney was perfused with cold PBS and 4% (wt/vol) paraformaldehyde and then harvested. Kidneys were fixed with 4% paraformaldehyde for 2 hours and then, embedded in paraffin for sectioning. Sagittal sections of kidneys were stained with hematoxylin and eosin (H&E). All image processing steps were automated and took place in freely available and open source software: An R1 script which used functions from the EBImage Bioconductor package2 and the ImageMagick3 suite of image processing tools. Kidney H&E images in Aperio SVS format were converted to TIFF images, and the first frame was retained for image analysis. First, the total kidney section area was calculated using image segmentation. Image segmentation was similarly used to find all internal structures including kidney cyst. A filter was applied to remove all objects less than a mean radius of three pixels. The cystic index is the image area associated with cysts divided by the total kidney areas. Cystic index was separately calculated for longitudinal and transverse kidney sections for each individual animal. Combined cystic index of individual animals were compared for each treatment groups.
RG4326 was tested in the Pcy mouse model. Wild-type mice were used as control group. From four weeks of age, Pcy mice were treated once per week via subcutaneous injection with RG4326 at a dose of 25 mg/kg, tool anti-miR-17 at a dose of 25 mg/kg, control oligonucleotide RG5124 at a dose of 25 mg/kg, or PBS. Each treatment group contained 15 male mice. Three treatments were administered on […] days of age, and weekly thereafter at 6, 7, 8, 9, 10, 11, 12, 13, and 14 weeks of age. Also tested was tolvaptan, a vasopressin V2-receptor antagonist (VRA) that is prescribed to some patients with polycystic kidney disease. Mice were sacrificed at 15 weeks of age. Body weight was recorded. One kidney was extracted and weighed and the other processed for histological analysis to calculate cyst index as described for the study in the Pkhd1/cre; Pkd2^F/F. Blood urea nitrogen (BUN) level and serum creatinine level were measured. Statistical significance was calculated by one-way ANOVA with Dunnett's multiple correction.

[4] = Tissue accumulation in kidney and liver (kidney-to-liver ratio); format: in vivo, mouse; conditions: single dose 30 mg/kg, seven days; for Kidney-to-Liver Ratio PKD Mice: JCK mice
Description: Pharmacokinetic properties and tissue distribution of select compounds were assessed in wild type C57BL6 mice and JCK mice (an experimental model of PKD). Compound was administered to wild type mouse at a dose of 0.3, 3, or 30 mg/kg, or to JCK mice at a dose of 3, 30, or 100 mg/kg. After seven days, mice were sacrificed. Kidney and liver tissues were collected. Concentration of anti-miR-17 compound was measured in liver and kidney. Compounds that accumulate to a greater level in kidney, relative to liver (i.e., have a higher kidney-to-liver ratio) were preferred.
(§2) The miPSA was used to assess the potency of each compound, measured by the displacement score, in wild type and JCK mice. Tissue accumulation of anti-miR-17 compound was measured by extraction of compound using liquid-liquid extraction (LLE) and/or solid-phase extraction (SPE), followed by analysis of the identity and concentration of compound using ion-pairing-reversed-phase high performance liquid chromatography coupled with time-of-flight mass spectrometry (IP—RP-HPLC-TOF).
(§3) Wild type mice were administered a single dose of 3 mg/kg for the miPSA analysis, and a single dose of 30 mg/kg for the tissue accumulation analysis. JCK mice were administered a single dose of 30 mg/kg for both the miPSA and tissue accumulation analyses. Kidney tissue was collected seven days following the administration of anti-miR-17 compound. […] A higher kidney-to-liver ratio is generally preferred for a disease where the primary site of action is the kidney.

miR-17 [5] = test: microRNA polysome shift assay (miPSA), kidney target engagement; format: in vivo, mouse; design: miPSA Score Wild Type Mice / miPSA Score PKD Mice / miPSA displacement score (mean): scale not given here; conditions: kidney, seven days; for miPSA Score PKD Mice: JCK mice, single dose 30 mg/kg; for miPSA Score Wild Type Mice: single dose 3 mg/kg
Description: (§4) In vivo potency was evaluated using the microRNA polysome shift assay (miPSA). This assay was used to determine the extent to which compounds directly engage the miR-17 target in the kidney in normal and PKD mice. The miPSA relies on the principle that active miRNAs bind to their mRNA targets in translationally active high molecular weight (HMW) polysomes, whereas the inhibited miRNAs reside in the low MW (LMW) polysomes. Treatment with anti-miR results in a shift of the microRNA from HMW polysomes to LMW polysomes. Thus, the miPSA provides a direct measurement of microRNA target engagement by a complementary anti-miR (Androsavich et al., Nucleic Acids Research, 2015, 44: e13).
as §2, §3
as §4, with “The” for “In vivo potency was evaluated using the”, “(miPSA),” for “(miPSA). This assay”, “identify” for “determine the extent to which”, “compounds that” for “compounds”, “engage” for “engage the”, “miR-17” for “miR-17 target”
For this experiment, the PKD model selected was the JCK model, a mouse model of slowly progressing renal cystic disease associated with the same gene that causes human nephronophthisis type 9. Renal cysts in this mouse develop in multiple regions of the nephron.
C57BL6 mice were treated with a single, subcutaneous dose of 0.3, 3, and 30 mg/kg of RG4326 or tool anti-miR-17 (described in Example 1). JCK mice were treated with a single, subcutaneous dose of 3, 30, and 100 mg/kg of RG4326 or tool anti-miR-17. PBS treatment was used as an additional control. At seven days post-treatment, mice were sacrificed, and kidney tissue was isolated for the miPSA. […] The displacement scores following treatment with RG4326 were greater than the displacement scores following treatment with the tool anti-miR-17 compound. The data for wild-type mice and JCK mice are also shown in FIG. 3A and FIG. 3B, respectively.
Pharmacokinetic behavior was assessed by administering a single subcutaneous 30 mg/kg dose of RG4326 or tool anti-miR-17 compound to wild-type mice. At one hour, four hours, eight hours, one day, seven days, 14 days, 28 days and 56 days following the single injection, mice were sacrificed and the mean concentration of anti-miR compound in kidney and liver tissue was measured (ug/g) as described above. The area-under-curve (AUC) was calculated for kidney and liver tissue using the formula ug*h/g, where ug is the amount of oligonucleotide in the tissue, h is the timepoint of tissue collection in hours, and g is the weight of the tissue. The ratio of kidney AUC to liver AUC was determined. Kidney tissue was also processed to the miPSA, to determine target engagement for each compound in this study. […]

[6] = Safety evaluation of RG4047 (pro-inflammatory signal in kidney and liver)
Description: In in vitro assays, the potential for toxicity was assessed using a biochemical fluorescent binding assay (FBA) and a liver or kidney slice assay. The FBA is performed by incubating a fluorescent dye with each compound, and immediately measuring fluorescence. Highly fluorescent compounds have the potential to produce toxicity in vivo. The liver or kidney slice assay is performed by incubating a slice of tissue from a core liver sample isolated from rat. Following a 24-hour incubation, RNA is extracted from the tissue slice, and the expression levels of 18 pro-inflammatory genes are measured. An induction in pro-inflammatory gene expression indicates a potential for pro-inflammatory effects in vivo.
Additional in vivo toxicology assessments were performed by administering to normal mice (Sv129 mice) a single subcutaneous injection of 300 mg/kg of anti-miR-17 compound. After four days, mice were sacrificed, blood was collected for serum chemistry analysis, liver and spleen were weighed, and RNA was isolated from kidney and liver tissues. The expression level of a pro-inflammatory gene, interferon-induced protein with tetratricopeptide repeats (IFIT), was measured.
RG4047 was evaluated for potency in vivo, safety, and distribution to kidney and liver.

miR-17 [7] = test: miR-17 luciferase reporter assay in HeLa cells; format: cell-based; conditions: mean
Description: In vitro potency was evaluated using a luciferase reporter assay. A luciferase reporter plasmid for miR-17, with […] in the 3′-UTR of the luciferase gene. Compounds of longer lengths were selected if their maximum inhibition was greater than that of the tool anti-miR-17 compound. As shorter compounds, such as 9-mers, are typically not maximally active in the same assay conditions used for longer compounds, shorter compounds were selected based on maximum inhibition relative to appropriate control compounds. In this way, compounds that are diverse in both length and chemical composition were included in further testing.
One assay employed was the luciferase assay. […] Accordingly, the luciferase assay transfection conditions were optimized for short anti-miR-17 compounds, so that the inhibitory activity of the compounds could be measured.
The luciferase reporter plasmid for miR-17 contained a fully complementary miR-17 binding site in the 3′-UTR of the luciferase gene. HeLa cells were transfected with the microRNA mimic and its cognate luciferase reporter, followed by transfection with anti-miR-17 at doses of […], 3, 10, 30, 100, and 300 nM. At the end of the 24-hour transfection period, luciferase activity was measured. As shown in Table 2-1, RG4047, while not as potent as RG4326, inhibited miR-17 activity in a dose dependent manner. SD indicates standard deviation.
Additional in vitro assays were conducted to further explore the potency of RG4326. A luciferase reporter assay was used to test the ability of RG4326 to inhibit the miR-17 family members miR-17, miR-20a, miR-93, and miR-106b. A luciferase reporter plasmid for each of miR-20a, miR-93, and miR-106b was constructed, with a fully complementary microRNA binding site in the 3′-UTR of the luciferase gene. HeLa cells were transfected with the microRNA mimic and its cognate luciferase reporter, followed by transfection with anti-miR-17 at a dose of 100 nm. […] As RG4326 is 100% complementary to the other miR-17 family members not tested, miR-20b and […], it is expected to inhibit these microRNAs as well.

[8] = 25 mg/kg s.c. for oligonucleotides, sacrificed at 15 weeks of age

5′-ASGSCMAF-3′ [Metabolite 2]
Ex Vivo Liver Lysate (% Analyte), Monkey [1]: 2.3% | Ex Vivo Liver Lysate (% Analyte), Human [2]: 0.7% | Ex Vivo Liver Lysate (% Analyte), Mouse [3]: 0.6%

5′-ASGSCMAFCF-3′ [Metabolite 1]
Ex Vivo Liver Lysate (% Analyte), Monkey [1]: 1.8% | Ex Vivo Liver Lysate (% Analyte), Human [2]: 0.6% | Ex Vivo Liver Lysate (% Analyte), Mouse [3]: 0.3%

Cc1ccccc1C(=O)Nc1ccc(C(=O)N2CCCC(O)c3cc(Cl)ccc32)c(C)c1 (stereo not drawn) [Tolvaptan, tolvaptan]
efficacy on KW/BW ratio, BUN or cyst index (in words) (Pcy mice): not efficacious | BUN (mean) (Pcy mice; [8]): 24.4 | Cystic Index (mean) (Pcy mice; [8]): 0.26 | KW/BW Ratio (mean) (Pcy mice; [8]): 20.1

ASGMCFAFCFUFUFUMGS [Compound 4327]
Kidney-to-Liver Ratio PKD Mice [4]: 9.4 | Kidney-to-Liver Ratio Wild Type Mice [4]: 24.9 | miPSA Score PKD Mice (miR-17 [5]): 1.53 | miPSA Score Wild Type Mice (miR-17 [5]): 2.85

ASGSCMAMCMUMUMUSGS [Compound 4325]
Kidney-to-Liver Ratio PKD Mice [4]: 5.7 | Kidney-to-Liver Ratio Wild Type Mice [4]: 12.4 | miPSA Score PKD Mice (miR-17 [5]): 2.00 | miPSA Score Wild Type Mice (miR-17 [5]): 1.82

ASGSCMASCMUSUMUSGS [Compound 4324]
Kidney-to-Liver Ratio PKD Mice [4]: 3.9 | Kidney-to-Liver Ratio Wild Type Mice [4]: 5.0 | miPSA Score PKD Mice (miR-17 [5]): 2.53 | miPSA Score Wild Type Mice (miR-17 [5]): 2.81

ASGSCSASCSUSUSUSGS [RG4047]
pro-inflammatory signal (in words) [6]: slight pro-inflammatory signal in both kidney and liver | Kidney-to-Liver Ratio PKD Mice [4]: 2.1 | Kidney-to-Liver Ratio Wild Type Mice [4]: 4.4 | Luciferase Fold Derepression (miR-17 [7]; 0.001 nM anti-miR-17, 24-hour transfection): 1 | Luciferase Fold Derepression (miR-17 [7]; 3 nM anti-miR-17, 24-hour transfection): 1.6 | Luciferase Fold Derepression (miR-17 [7]; 10 nM anti-miR-17, 24-hour transfection): 2.2 | Luciferase Fold Derepression (miR-17 [7]; 30 nM anti-miR-17, 24-hour transfection): 3.5 | Luciferase Fold Derepression (miR-17 [7]; 100 nM anti-miR-17, 24-hour transfection): 8.2 | Luciferase Fold Derepression (miR-17 [7]; 300 nM anti-miR-17, 24-hour transfection): 7.5 | miPSA Score PKD Mice (miR-17 [5]): 1.80 | miPSA Score Wild Type Mice (miR-17 [5]): 1.76
